Data taken from patent publication US20240279214A1, “ALPHA4 BETA7 INEGRIN ANTAGONISTS AND USES THEREOF” (XinThera, Inc., priority 2022, published 2024).

Target: T1, a4b7 integrin interaction with MadCAM-1 (Homo sapiens, UniProt P13612+P26010)
T1 construct: capture of a4b7 integrin expressing cells, RPMI8866; endogenous in cells; host or cells: RPMI8866
T1 sequence (P13612 34-1032): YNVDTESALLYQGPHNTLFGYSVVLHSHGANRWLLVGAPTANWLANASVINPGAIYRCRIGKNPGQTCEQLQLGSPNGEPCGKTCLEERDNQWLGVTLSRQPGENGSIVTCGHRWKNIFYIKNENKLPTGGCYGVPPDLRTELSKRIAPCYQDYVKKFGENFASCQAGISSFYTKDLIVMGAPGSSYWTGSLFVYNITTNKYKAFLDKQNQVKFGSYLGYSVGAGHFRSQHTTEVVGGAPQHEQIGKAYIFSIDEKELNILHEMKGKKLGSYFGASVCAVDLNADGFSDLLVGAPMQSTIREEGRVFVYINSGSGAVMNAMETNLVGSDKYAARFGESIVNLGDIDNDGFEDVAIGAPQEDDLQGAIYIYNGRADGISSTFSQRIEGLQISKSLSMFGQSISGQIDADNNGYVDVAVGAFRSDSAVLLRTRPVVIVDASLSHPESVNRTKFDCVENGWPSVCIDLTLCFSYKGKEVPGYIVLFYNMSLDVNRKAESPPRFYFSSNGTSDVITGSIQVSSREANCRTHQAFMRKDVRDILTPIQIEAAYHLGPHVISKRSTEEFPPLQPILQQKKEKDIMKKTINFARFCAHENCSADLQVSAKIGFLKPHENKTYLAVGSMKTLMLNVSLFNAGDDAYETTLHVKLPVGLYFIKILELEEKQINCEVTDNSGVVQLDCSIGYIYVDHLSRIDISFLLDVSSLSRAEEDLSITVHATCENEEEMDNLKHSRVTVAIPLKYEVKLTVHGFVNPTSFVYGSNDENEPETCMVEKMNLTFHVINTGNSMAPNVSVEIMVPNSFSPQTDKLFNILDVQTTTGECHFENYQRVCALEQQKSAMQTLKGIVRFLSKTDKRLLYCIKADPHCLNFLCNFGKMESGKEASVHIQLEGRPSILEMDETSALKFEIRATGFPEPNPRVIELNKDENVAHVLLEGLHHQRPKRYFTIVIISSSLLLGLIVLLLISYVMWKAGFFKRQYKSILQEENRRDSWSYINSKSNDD
T1 sequence (P26010 20-798): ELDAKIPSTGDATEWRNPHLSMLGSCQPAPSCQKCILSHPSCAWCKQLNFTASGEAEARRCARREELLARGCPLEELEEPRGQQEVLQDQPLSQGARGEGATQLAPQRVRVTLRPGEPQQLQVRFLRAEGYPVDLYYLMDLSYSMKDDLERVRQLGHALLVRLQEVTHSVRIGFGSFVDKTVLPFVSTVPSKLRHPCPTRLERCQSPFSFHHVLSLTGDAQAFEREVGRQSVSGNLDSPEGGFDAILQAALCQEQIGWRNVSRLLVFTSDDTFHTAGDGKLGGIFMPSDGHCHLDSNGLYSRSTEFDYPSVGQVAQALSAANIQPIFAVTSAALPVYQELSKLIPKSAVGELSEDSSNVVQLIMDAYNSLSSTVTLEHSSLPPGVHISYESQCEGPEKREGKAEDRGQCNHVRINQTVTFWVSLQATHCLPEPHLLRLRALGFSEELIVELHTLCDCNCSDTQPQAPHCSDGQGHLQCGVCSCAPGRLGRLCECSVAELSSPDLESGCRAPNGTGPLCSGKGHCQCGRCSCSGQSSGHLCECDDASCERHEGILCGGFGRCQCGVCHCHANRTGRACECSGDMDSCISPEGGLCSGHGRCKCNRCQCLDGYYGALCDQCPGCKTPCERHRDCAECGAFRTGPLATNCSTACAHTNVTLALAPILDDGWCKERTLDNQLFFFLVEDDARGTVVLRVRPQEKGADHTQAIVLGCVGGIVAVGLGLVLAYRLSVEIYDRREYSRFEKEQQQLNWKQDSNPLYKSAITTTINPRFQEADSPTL
Assay: a4b7 Cell Capture Assay (RPMI8866 cells on MAdCAM-1 Fc coated plates)
Format: cell-based
Settings: 50% human serum, 1 mM MgCl2, 1 hour incubation, CellTiter-Glo luminescence, read-out: a4B7 cell capture assay RMPI8866-MadCAM EC50
Summary of the method: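 RPMI8866 cells (1.0×10^6 cells/mL) in 1 mM MgCl2, 25 mM HEPES, 50% human serum were added to plates coated with human MAdCAM-1–IgG1 Fc (1.0 μg/mL) and exposed to compound (9-point, 0.08–1000 nM, 0.1% DMSO) for 1 h at 37 °C. Bound cells were read by CellTiter-Glo luminescence. IC50 came from 4-parameter fit of normalized % inhibition.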

Row | SMILES | EC50 [nM]
1 | Cc1cc2cc(c1F)[C@H](CC(=O)O)NC(=O)[C@@H](n1cc(CCN3CC(F)C3)c(C(F)(F)F)cc1=O)c1cc(Cl)cc(c1)Oc1ccc(F)c(C)c1-2 (relative stereo) [Example 34, [(14R*,17S)-11-chloro-4,19-difluoro-14-{5-[2-(3-fluoroazetidin-1-yl)ethyl]-2-oxo-4-(trifluoromethyl)pyridin-1-yl}-3,20-dimethyl-15-oxo-8-oxa-16-azatetracyclo[16.3.1.1^{9,13}.0^{2,7}]tricosa-1(22),2(7),3,5,9,11,13(23),18,20-nonaen-17-yl]acetic acid] | 23
2 | Cc1cccc2c1-c1cc(C(F)F)c(F)c(c1)[C@H](CC(=O)O)NC(=O)[C@@H](n1cc(CCN3CC(F)C3)c(C(F)(F)F)cc1=O)c1cc(ccc1F)O2 (relative stereo) [Example 37, [(14R*,17S)-20-(difluoromethyl)-12,19-difluoro-14-{5-[2-(3-fluoroazetidin-1-yl)ethyl]-2-oxo-4-(trifluoromethyl)pyridin-1-yl}-3-methyl-15-oxo-8-oxa-16-azatetracyclo[16.3.1.1^{9,13}.0^{2,7}]tricosa-1(22),2(7),3,5,9,11,13(23),18,20-nonaen-17-yl]acetic acid] | 1.3
3 | Cc1cc2cc(c1F)[C@H](CC(=O)O)NC(=O)[C@@H](n1cc(CCN3CC(F)C3)c(C(F)(F)F)cc1=O)c1cc(ccc1F)Oc1nn(C)c(C)c1-2 (relative stereo) [Example 40, rel-[(13S,16S)-11,18-difluoro-13-{5-[2-(3-fluoroazetidin-1-yl)ethyl]-2-oxo-4-(trifluoromethyl)pyridin-1-yl}-3,4,19-trimethyl-14-oxo-7-oxa-4,5,15-triazatetracyclo[15.3.1.1^{8,12}.0^{2,6}]docosa-1(21),2,5,8,10,12(22),17,19-octaen-16-yl]acetic acid] | 42
4 | Cc1cc2cc(c1F)[C@H](CC(=O)O)NC(=O)[C@@H](n1cc(CCN3CC(F)C3)c(C(F)(F)F)cc1=O)c1cc(ccc1F)Oc1cc(Cl)cc(C)c1-2 (relative stereo) [Example 55, [(14R*,17S)-5-chloro-12,19-difluoro-14-{5-[2-(3-fluoroazetidin-1-yl)ethyl]-2-oxo-4-(trifluoromethyl)pyridin-1-yl}-3,20-dimethyl-15-oxo-8-oxa-16-azatetracyclo[16.3.1.1^{9,13}.0^{2,7}]tricosa-1(22),2(7),3,5,9,11,13(23),18,20-nonaen-17-yl]acetic acid] | 4
5 | Cc1cc2cc(c1F)[C@H](CC(=O)O)NC(=O)[C@@H](n1cc(CCN3CC(F)C3)c(C(F)(F)F)cc1=O)c1cc(ccc1F)Oc1cc(N3C4CCC3COC4)cc(C)c1-2 (relative stereo) [Example 56, [(14R*,17S)-12,19-difluoro-14-{5-[2-(3-fluoroazetidin-1-yl)ethyl]-2-oxo-4-(trifluoromethyl)pyridin-1-yl}-3,20-dimethyl-5-{3-oxa-8-azabicyclo[3.2.1]octan-8-yl}-15-oxo-8-oxa-16-azatetracyclo[16.3.1.1^{9,13}.0^{2,7}]tricosa-1(22),2(7),3,5,9,11,13(23),18,20-nonaen-17-yl]acetic acid] | 0.97
6 | Cc1cc2cc(c1F)[C@H](CC(=O)O)NC(=O)[C@@H](n1ccc(C(F)(F)F)c(Cl)c1=O)c1cc(ccc1F)COc1cccc(C)c1-2 (relative stereo) [Example 79, [(15R*,18S)-15-[3-chloro-2-oxo-4-(trifluoromethyl)pyridin-1-yl]-13,20-difluoro-3,21-dimethyl-16-oxo-8-oxa-17-azatetracyclo[17.3.1.1^{10,14}.0^{2,7}]tetracosa-1(23),2(7),3,5,10,12,14(24),19,21-nonaen-18-yl]acetic acid] | > 100
7 | Cc1cc2cc(c1F)[C@H](CC(=O)O)NC(=O)[C@@H](n1cc(CCCN3CCC3)c(C(F)(F)F)cc1=O)c1cc(ccc1F)Oc1cccc(C)c1-2 (single isomer, unassigned) [Example 21] | 0.079

Next, values leading:

Row | EC50 [nM] | SMILES
8 | 7.7 | Cc1cccc2c1-c1cc(c(F)c(C(F)(F)F)c1)[C@H](CC(=O)O)NC(=O)[C@@H](n1cc(CCN3CC(F)C3)c(C(F)(F)F)cc1=O)c1cc(ccc1F)CO2 (relative stereo) [Example 35, [(15R*,18S)-13,20-difluoro-15-{5-[2-(3-fluoroazetidin-1-yl)ethyl]-2-oxo-4-(trifluoromethyl)pyridin-1-yl}-3-methyl-16-oxo-21-(trifluoromethyl)-8-oxa-17-azatetracyclo[17.3.1.1^{10,14}.0^{2,7}]tetracosa-1(23),2(7),3,5,10,12,14(24),19,21-nonaen-18-yl]acetic acid]
9 | 5.2 | Cc1cc2cc(c1F)[C@H](CC(=O)O)NC(=O)[C@@H](n1cc(CCN3CC(F)C3)c(C(F)(F)F)cc1=O)c1cc(ccc1F)COc1cccc(C)c1-2 (relative stereo) [Example 36, [(15R*,18S)-13,20-difluoro-15-{5-[2-(3-fluoroazetidin-1-yl)ethyl]-2-oxo-4-(trifluoromethyl)pyridin-1-yl}-3,21-dimethyl-16-oxo-8-oxa-17-azatetracyclo[17.3.1.1^{10,14}.0^{2,7}]tetracosa-1(23),2(7),3,5,10,12,14(24),19,21-nonaen-18-yl]acetic acid]
10 | 990 | Cc1ccc2c(c1C)-c1cc(C)c(F)c(c1)[C@H](CC(=O)O)NC(=O)[C@@H](n1cc(CCN3CC(F)C3)c(C(F)(F)F)cc1=O)c1cc(ccc1F)CO2 (relative stereo) [Example 51, [(15R*,18S)-13,20-difluoro-15-{5-[2-(3-fluoroazetidin-1-yl)ethyl]-2-oxo-4-(trifluoromethyl)pyridin-1-yl}-3,4,21-trimethyl-16-oxo-8-oxa-17-azatetracyclo[17.3.1.1^{10,14}.0^{2,7}]tetracosa-1(23),2(7),3,5,10,12,14(24),19,21-nonaen-18-yl]acetic acid]
11 | 1.2 | Cc1cc2cc(c1F)[C@H](CC(=O)O)NC(=O)[C@@H](n1cc(CCN3CC(F)C3)c(C(F)(F)F)cc1=O)c1cc(ccc1Cl)Oc1cccc(C)c1-2 (relative stereo) [Example 59, [(14R*,17S)-12-chloro-19-fluoro-14-{5-[2-(3-fluoroazetidin-1-yl)ethyl]-2-oxo-4-(trifluoromethyl)pyridin-1-yl}-3,20-dimethyl-15-oxo-8-oxa-16-azatetracyclo[16.3.1.1^{9,13}.0^{2,7}]tricosa-1(22),2(7),3,5,9,11,13(23),18,20-nonaen-17-yl]acetic acid]
12 | 77 | Cc1cc2cc(c1F)[C@H](CC(=O)O)NC(=O)[C@@H](n1cc(CCN3CC(F)C3)c(C(F)(F)F)cc1=O)c1cc(ccc1F)COc1cc(C(F)(F)F)cc(C)c1-2 (relative stereo) [Example 65, [(15R*,18S)-13,20-difluoro-15-{5-[2-(3-fluoroazetidin-1-yl)ethyl]-2-oxo-4-(trifluoromethyl)pyridin-1-yl}-3,21-dimethyl-16-oxo-5-(trifluoromethyl)-8-oxa-17-azatetracyclo[17.3.1.1^{10,14}.0^{2,7}]tetracosa-1(23),2(7),3,5,10,12,14(24),19,21-nonaen-18-yl]acetic acid]
